Laboratory results reported in patent publication US8399490B2, “Insecticides” (Syngenta Crop Protection LLC, priority 2007, dated 2013).

Experiments:
Assay type in all cases: in vivo
[1] = test system: Plutella xylostella (diamond back moth); assay: Example B3: Plutella xylostella (larvicide, feeding/residual contact activity, preventive), artificial diet MTP; details: 120 h, L2 larvae on artificial diet, 5 days incubation
Experimental: (§1) Plutella xylostella (Diamond Back Moth) (Larvicide, Feeding/Residual Contact Activity, Preventive) 24-well microtiter plate (MTP) with artificial diet is treated with test solutions by pipetting. After drying, the MTP's are infested with larvae (L2) (10-15 per well). After an incubation period of 5 days, samples are checked for larval mortality, antifeedant and growth regulation.

[2] = test system: Spodoptera littoralis (Egyptian cotton leafworm); assay: Example B1: Activity against Spodoptera littoralis (larvicide, feeding/residual contact activity, preventive), cotton leaf discs; details: foliar, 72 h, L1 larvae on cotton leaf discs, 3 days after treatment
Description: Activity Against Spodoptera littoralis (Egyptian Cotton Leafworm)
(Larvicide, Feeding/Residual Contact Activity, Preventive)
The samples are checked for mortality, repellent effect, feeding behaviour, and growth regulation 3 days after treatment. In this test, compounds listed in Table P above show good activity. In particular compounds P.1, P.2, P.3, P.4, P.5, P.6, P.7, P.8, P.9, P.10, P.11, P.12, P.13, P.14, P.15, P.16, P.17, P.18, P.19, P.20, P.21, P.22, P.23, P.24, P.25, P.26, P.27, P.28, P.29, P.30, P.31, P.32, P.33, P.34, P.35, P.36, P.37, P.38, P.39, P.40, P.41, P.42, P.43, P.44, P.46, P.50, P.51, P.52, P.55, P.56, P.57, P.58, P.59, P.60, P61, P.66, P.67, P.68, P.69, P.70, P.71, P.72, P.73, P.74, P.75, P.76, P.77, P.78, P.83, P.84, P.87 and P.88 show an activity of over 80% at a concentration of 400 ppm.

[3] = test system: Heliothis virescens (tobacco budworm); assay: Example B2: Activity against Heliothis virescens (ovo-larvicide, feeding/contact activity, curative), eggs on artificial diet; details: 96 h, 4 days incubation
Experimental: Activity Against Heliothis virescens (Tobacco Budworm) (Ovo-Larvicide, Feeding/Contact Activity, Curative) Eggs (0-24 h old) are placed in 24-well microtiter plate on artificial diet and treated with test solutions by pipetting. After an incubation period of 4 days, samples are checked for egg mortality, larval mortality, and growth regulation.

[4] = test system: Diabrotica balteata (corn root worm); assay: Example B4: Diabrotica balteata (larvicide, feeding/residual contact activity, preventive), artificial diet MTP; details: 120 h, L2 larvae on artificial diet, 5 days incubation
Experimental: as §1, with “Diabrotica balteata (Corn Root Worm)” for “Plutella xylostella (Diamond Back Moth)”, “(6-10” for “(10-15”

Measured: pest or weed control at 400 ppm

CCc1cc2c(c(C(=O)NC(C)C)c1NC(=O)c1cc(Br)nn1-c1ncccc1Cl)OC(F)(F)O2 [P.34]
> 80%: [1] | [2] | [3]

Cc1cc2c(c(C(=O)NC(C)C)c1NC(=O)c1cc(C(F)(F)F)nn1-c1ncccc1Cl)OCO2 [P.67, 5-methyl-6-{[2-(3-chloro-pyridin-2-yl)-5-trifluoromethyl-2H-pyrazole-3-carbonyl]-amino}-2,4-dioxolane-benzoic acid isopropylamide]
> 80%: all assays above

CNC(=O)c1c(NC(=O)c2cc(OC)nn2-c2ncccc2Cl)c(Cl)cc2c1OC(F)(F)O2 [P.37]
> 80%: all assays above

O=C(NC1(C2CC2)CC1)c1c(NC(=O)c2cc(C(F)(F)F)nn2-c2ncccc2Cl)c(Cl)cc2c1OC(F)(F)O2 [P.17]
> 80%: all assays above

O=C(NC1(C2CC2)CC1)c1c(NC(=O)c2cc(Br)nn2-c2ncccc2Cl)c(Cl)cc2c1OCO2 [P.11]
> 80%: all assays above

CNC(=O)c1c(NC(=O)c2cc(C(F)(F)F)nn2-c2ncccc2Cl)c(C)cc2c1OC(F)(F)O2 [P.43]
> 80%: all assays above

O=C1CCc2cc(Cl)c(NC(=O)c3cc(Br)nn3-c3ncccc3Cl)c(C(=O)NC3(C4CC4)CC3)c21 [P.53]
> 80%: [1]

CC(C)NC(=O)c1c(NC(=O)c2cc(C(F)(F)F)nn2-c2ncccc2Cl)c(Cl)cc2c1C(F)CC2 (stereo not shown) [P.49]
> 80%: [1] | [3] | [4]

Cc1cc2c(c(C(=O)NC3(C4CC4)CC3)c1NC(=O)c1cc(Cl)nn1-c1ncccc1Cl)OC(F)(F)O2 [P.32]
> 80%: all assays above

CC(C)NC(=O)c1c(NC(=O)c2cc(OCC(F)(F)F)nn2-c2ncccc2Cl)c(Cl)cc2c1OCO2 [P.57]
> 80%: all assays above

CNC(=O)c1c(NC(=O)c2cc(Cl)nn2-c2ncccc2Cl)c(Cl)cc2c1OCO2 [P.9]
> 80%: [1] | [2] | [3]

Cc1cc2c(c(C(=O)NCC3CC3)c1NC(=O)c1cc(C(F)(F)F)nn1-c1ncccc1Cl)OC(F)(F)O2 [P.46]
> 80%: all assays above

CC(C)NC(=O)c1c(NC(=O)c2cc(Br)nn2-c2ncccc2Cl)c(Cl)cc2c1C(O)CC2 (stereo not shown) [P.54]
> 80%: [1] | [3] | [4]

CC(C)NC(=O)c1c(NC(=O)c2cc(C(F)(F)F)nn2-c2ncccc2Cl)c(Cl)cc2c1OCO2 [P.1]
> 80%: all assays above

CCNC(=O)c1c(NC(=O)c2cc(C(F)(F)F)nn2-c2ncccc2Cl)c(Cl)cc2c1OCO2 [P.2]
> 80%: all assays above

COc1cc(C(=O)Nc2c(C)cc3c(c2C(=O)NC(C)C)OC(F)(F)O3)n(-c2ncccc2Cl)n1 [P.36]
> 80%: all assays above

CCNC(=O)c1c(NC(=O)c2cc(C(F)F)nn2-c2ncccc2Cl)c(C)cc2c1OCO2 [P.72]
> 80%: [1] | [2] | [3]

CC(C)NC(=O)c1c(NC(=O)c2cc(C(F)(F)F)nn2-c2ncccc2Cl)c(Cl)cc2c1C(O)CC2 (stereo not shown) [P.48]
> 80%: [1]

CCNC(=O)c1c(NC(=O)c2cc(Cl)nn2-c2ncccc2Cl)c(Cl)cc2c1OCO2 [P.8]
> 80%: all assays above

Cc1cc2c(c(C(=O)NC(C)(C)C)c1NC(=O)c1cc(C(F)F)nn1-c1ncccc1Cl)OCO2 [P.73]
> 80%: all assays above

CCNC(=O)c1c(NC(=O)c2cc(OCC(F)(F)F)nn2-c2ncccc2Cl)c(Cl)cc2c1OCO2 [P.58]
> 80%: [1] | [2] | [3]

CCNC(=O)c1c(NC(=O)c2cc(C(F)(F)F)nn2-c2ncccc2Cl)c(C)cc2c1OCO2 [P.68]
> 80%: all assays above

O=C(NC1(C2CC2)CC1)c1c(NC(=O)c2cc(Br)nn2-c2ncccc2Cl)c(Cl)cc2c1C(F)CC2 (stereo not shown) [P.55]
> 80%: [1] | [2] | [3]

CNC(=O)c1c(NC(=O)c2cc(OC)nn2-c2ncccc2Cl)c(Br)cc2c1OC(F)(F)O2 [P.39]
> 80%: all assays above

Cc1cc2c(c(C(=O)NC(C)C)c1NC(=O)c1cc(Br)nn1-c1ncccc1Cl)OCO2 [P.75]
> 80%: all assays above

CC(C)NC(=O)c1c(NC(=O)c2cc(Br)nn2-c2ncccc2Cl)c(Cl)cc2c1OCO2 [P.10]
> 80%: all assays above

CC1Cc2ccc(NC(=O)c3cc(Br)nn3-c3ncccc3Cl)c(C(=O)NC3CC3)c2S1(=O)=O (stereo not shown) [P.61]
> 80%: [1] | [2] | [3]

CC(C)NC(=O)c1c(NC(=O)c2cc(Br)nn2-c2ncccc2Cl)c(Cl)cc2c1C(F)CC2 (stereo not shown) [P.56]
> 80%: [1] | [2] | [3]

CNC(=O)c1c(NC(=O)c2cc(OC)nn2-c2ncccc2Cl)c(C)cc2c1OC(F)(F)O2 [P.35]
> 80%: [1] | [2] | [3]

CC(C)NC(=O)c1c(NC(=O)c2cc(Br)nn2-c2ncccc2Cl)c(Br)cc2c1S(=O)(=O)C(C)C2 (stereo not shown) [P.87]
> 80%: [1] | [2] | [3]

O=C(NC1(C2CC2)CC1)c1c(NC(=O)c2cc(C(F)(F)F)nn2-c2ncccc2Cl)c(Cl)cc2c1C(O)CC2 (stereo not shown) [P.51]
> 80%: [1] | [2] | [3]

CC(C)NC(=O)c1c(NC(=O)c2cc(C(F)F)nn2-c2ncccc2Cl)c(Br)cc2c1OC(C)C2 (stereo not shown) [P.84]
> 80%: [1] | [2] | [3]

CC(C)NC(=O)c1c(NC(=O)c2cc(C(F)(F)F)nn2-c2ncccc2Cl)c(Cl)cc2c1/C(=N/O)CC2 [P.52]
> 80%: [1] | [2] | [3]

CCc1cc2c(c(C(=O)NC)c1NC(=O)c1cc(Br)nn1-c1ncccc1Cl)OC(F)(F)O2 [P.33]
> 80%: [1] | [2] | [3]

CNC(=O)c1c(NC(=O)c2cc(Br)nn2-c2ncccc2Cl)ccc2c1S(=O)(=O)C(C)C2 (stereo not shown) [P.59]
> 80%: [1] | [2] | [3]

COc1cc(C(=O)Nc2c(Cl)cc3c(c2C(=O)NC2(C4CC4)CC2)OCO3)n(-c2ncccc2Cl)n1 [P.7]
> 80%: [1] | [2] | [3]
